Molecular target: Bromodomain-containing protein 4 (Homo sapiens, UniProt O60885)
Assay: A mix consisting of 15 nM GST-BRD4-BD1 protein (aa 44-168) or 150 nM GST-BRD4-BD2 (aa 333-460) and 15 nM biotinylated Acetyl-Histone H4 (Lys5, 8, 12, 16) peptide is prepared in assay buffer (50 mM HEPES pH=7.4; 25 mM NaCl; 0.05% Tween 20; 0.1% bovine serum albumin (BSA); 10 mM dithiothreitol (DTT)). 6 μl of the mix is added to the compound dilutions. Subsequently, 6 μl of premixed AlphaLISA Glutathione Acceptor Beads and AlphaScreen Streptavidin Donor Beads from PerkinElmer (in assay buffer at a concentration of 10 μg/ml each) are added and the samples are incubated for 30 min at RT in the dark (shaking 300 rpm). Afterwards, the signal is measured in a PerkinElmer Envision HTS Multilabel Reader using the AlphaScreen protocol from PerkinElmer.Each plate contains negative controls where biotinylated Acetyl-Histone H4 peptide and GST-BRD4-BD1 or GST-BRD4-BD2 are left out and replaced by assay buffer. Negative control values are entered as low basis value when using the software GraphPad Prism for calculations. Furthermore, a positive control (probe molecule JQ1+ with protein/peptide mix) is pipetted. Determination of IC50 values are carried out using GraphPad Prism 3.03 software (or updates thereof).

Compound: CNc1nc(-c2nn(C)c(C)c2Oc2ccccc2)cn2c(C)nnc12
- IC50: 8 nM
